From EP4483954A1 (Masarykova Univerzita, priority 2023, dated 2025)

Experiments:
Type in all cases: biochemical
CDKL3(h) = molecular target: T1, CDKL3(h) (Homo sapiens, UniProt Q8IVW4); assay: radiometric kinase assay (KinaseProfiler, Eurofins), CDKL3; details: in vitro radiometric kinase assay, tested at 1 nM to 10 000 nM, no pre-incubation; read-out: inhibitory activities (IC50 values) CDKL3
T1 construct: purchased Eurofins (KinaseProfiler)
Experimental: (§1) The compounds were profiled in the radiometric assays (KinaseProfiler, Eurofins).
Briefly, kinases were diluted in the buffer shown below prior to addition to the reaction mix: • CDKL3, TAF1L: 20 mM Tris/HCl pH 8.5, 0.2 mM EDTA, 0.1% β-mercaptoethanol, 0.01% Brij-35, 5% glycerol, 1 mg/ml BSA; • Haspin: 15 mM MOPS, 0.75 mM EDTA, 0.0075% Brij-35, 3.75% Glycerol, 150 mM NaCl, 0.1% β-mercaptoethanol, 1 mg/mLBSA; • CDKL4, CLK2, PIM1, TRB2: […], 1 mM EDTA, 0.01% Brij-35, 5% Glycerol, 0.1% β-mercaptoethanol, 1 mg/mL BSA.
(§2) All compounds were prepared to 50x final assay concentration in 100% DMSO. This working stock of the compound was added to the assay well as the first component in the reaction, followed by the remaining components as detailed in the general assay protocols below. There was no pre-incubation step between the compound and the kinase prior to initiation of the reaction.
CDKL3(h) was incubated with 8 mM MOPS pH 7.0, 0.2 mM EDTA, 250 µM RRRFRPASPLRGPPK (SEQ ID NO. 1), 10 mM magnesium acetate and γ-^33P-ATP (specific activity and concentration as required). The reaction was initiated by the addition of the Mg/ATP mix. After incubation for 120 minutes at room temperature, the reaction was stopped by the addition of phosphoric acid to a concentration of 0.5%. An aliquot of the stopped reaction was spotted onto a filter and washed four times for 4 minutes in 0.425% phosphoric acid and once in methanol prior to drying and scintillation counting.
(§3) Kinase activity data were expressed as the percent remaining kinase activity in tested samples compared to the vehicle (DMSO) reactions. The compounds were tested at the following concentrations: 1 nM, 3 nM, 10 nM, 30 nM, 100 nM, 300 nM, 1000 nM, 3000 nM, and 10 000 nM; IC50 values and curve fits were then obtained.

DYRK2 (h) = molecular target: T2, DYRK2 (h) (Homo sapiens, UniProt Q92630); assay: radiometric kinase assay (KinaseProfiler, Eurofins), DYRK2; details: in vitro radiometric kinase assay, tested at 1 nM to 10 000 nM, no pre-incubation; read-out: inhibitory activities (IC50 values) DYRK2
T2 construct: purchased Eurofins (KinaseProfiler)
T2 sequence (Q92630 1-601): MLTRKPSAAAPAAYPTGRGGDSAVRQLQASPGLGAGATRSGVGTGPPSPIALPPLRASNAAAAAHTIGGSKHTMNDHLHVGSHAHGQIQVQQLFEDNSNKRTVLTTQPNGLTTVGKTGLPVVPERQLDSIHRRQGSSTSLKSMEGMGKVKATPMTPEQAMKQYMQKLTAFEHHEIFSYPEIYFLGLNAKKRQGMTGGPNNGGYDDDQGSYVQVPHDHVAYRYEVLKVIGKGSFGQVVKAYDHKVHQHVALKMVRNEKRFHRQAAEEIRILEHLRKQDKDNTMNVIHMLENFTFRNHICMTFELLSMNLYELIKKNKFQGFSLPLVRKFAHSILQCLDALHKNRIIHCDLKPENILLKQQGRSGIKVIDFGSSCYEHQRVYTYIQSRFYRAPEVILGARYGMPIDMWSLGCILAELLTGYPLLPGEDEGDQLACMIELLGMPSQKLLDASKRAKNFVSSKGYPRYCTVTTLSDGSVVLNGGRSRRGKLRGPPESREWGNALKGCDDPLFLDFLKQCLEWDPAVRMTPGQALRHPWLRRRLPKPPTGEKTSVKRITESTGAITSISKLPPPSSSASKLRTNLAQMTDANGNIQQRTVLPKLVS
Experimental: as §1, §2
DYRK2 (h) was incubated with 8 mM MOPS pH 7.0, 0.2 mM EDTA, 2 mg/mL casein, 10 mM magnesium acetate and γ-^33P-ATP (specific activity and concentration as required). The reaction was initiated by the addition of the Mg/ATP mix. After incubation for 40 minutes at room temperature, the reaction was stopped by the addition of phosphoric acid to a concentration of 0.5%. An aliquot of the reaction was then spotted onto a filter and washed four times for 4 minutes in 0.425% phosphoric acid and once in methanol prior to drying and scintillation counting.
as §3

Haspin (h) = molecular target: T3, Haspin (h) (Homo sapiens, UniProt Q8TF76); assay: radiometric kinase assay (KinaseProfiler, Eurofins), Haspin; details: in vitro radiometric kinase assay, tested at 1 nM to 10 000 nM, no pre-incubation; read-out: inhibitory activities (IC50 values) Haspin
T3 construct: purchased Eurofins (KinaseProfiler)
T3 sequence (Q8TF76 1-798): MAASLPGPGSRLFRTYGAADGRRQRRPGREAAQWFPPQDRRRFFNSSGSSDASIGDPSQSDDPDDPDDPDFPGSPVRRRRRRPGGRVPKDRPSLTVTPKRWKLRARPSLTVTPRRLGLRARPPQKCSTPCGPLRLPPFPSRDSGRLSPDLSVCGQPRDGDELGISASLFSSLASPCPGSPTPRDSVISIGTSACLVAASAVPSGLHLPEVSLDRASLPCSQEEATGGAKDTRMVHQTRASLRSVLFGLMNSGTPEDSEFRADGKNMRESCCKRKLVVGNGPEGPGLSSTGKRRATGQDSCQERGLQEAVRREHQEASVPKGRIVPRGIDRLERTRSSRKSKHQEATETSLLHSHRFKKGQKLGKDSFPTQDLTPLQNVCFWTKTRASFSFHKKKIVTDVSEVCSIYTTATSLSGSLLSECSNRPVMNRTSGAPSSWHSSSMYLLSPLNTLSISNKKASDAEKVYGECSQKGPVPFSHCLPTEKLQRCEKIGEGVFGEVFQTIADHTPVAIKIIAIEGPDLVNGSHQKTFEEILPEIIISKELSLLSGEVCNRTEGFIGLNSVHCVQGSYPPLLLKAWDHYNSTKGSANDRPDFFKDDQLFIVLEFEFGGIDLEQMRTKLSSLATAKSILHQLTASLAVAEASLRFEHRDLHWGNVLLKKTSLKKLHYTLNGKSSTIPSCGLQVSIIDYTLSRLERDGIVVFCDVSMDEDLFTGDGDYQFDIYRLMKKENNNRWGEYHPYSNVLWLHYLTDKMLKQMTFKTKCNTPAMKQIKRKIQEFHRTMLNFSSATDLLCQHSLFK
Procedure, shortened: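 Human Haspin in 8 mM MOPS pH 7.0 with 500 µM RARTLSFAEPG, 10 mM Mg acetate and γ-33P-ATP; compound added without preincubation. Reaction ran 40 min at room temperature, then filter-bound 33P was counted. Nine concentrations from 1 to 10 000 nM gave % remaining activity versus DMSO, and IC50 came from curve fit.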

T1 sequence (Q8IVW4 whole entry): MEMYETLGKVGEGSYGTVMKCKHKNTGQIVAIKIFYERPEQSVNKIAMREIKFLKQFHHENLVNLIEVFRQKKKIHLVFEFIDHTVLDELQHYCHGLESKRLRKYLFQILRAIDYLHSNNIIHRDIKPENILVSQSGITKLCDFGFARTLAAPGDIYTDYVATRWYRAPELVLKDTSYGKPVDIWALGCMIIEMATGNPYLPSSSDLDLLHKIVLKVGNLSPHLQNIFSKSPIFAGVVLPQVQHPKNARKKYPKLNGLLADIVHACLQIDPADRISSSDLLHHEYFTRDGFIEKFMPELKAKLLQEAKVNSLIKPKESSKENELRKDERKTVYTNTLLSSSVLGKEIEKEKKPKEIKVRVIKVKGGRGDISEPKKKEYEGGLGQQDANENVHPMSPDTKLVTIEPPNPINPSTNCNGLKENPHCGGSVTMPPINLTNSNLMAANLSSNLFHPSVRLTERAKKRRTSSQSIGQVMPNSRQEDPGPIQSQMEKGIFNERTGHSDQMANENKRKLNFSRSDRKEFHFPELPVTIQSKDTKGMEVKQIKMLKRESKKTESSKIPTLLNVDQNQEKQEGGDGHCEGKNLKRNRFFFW

Structure (SMILES)	IC50 (CDKL3(h)) [µM]	IC50 (DYRK2 (h)) [µM]	IC50 (Haspin (h)) [µM]
Cn1cncc1-c1ccc2scc(-c3ccncc3)c2n1 [Preparative Example 91, 5-(1-methyl-1H-imidazol-5-yl)-3-(pyridin-4-yl)thieno[3,2-b]pyridine]	0.5 to 3	0.5 to 3	0.02 to 0.099
Cn1cc(-c2ccc3scc(C(=O)c4ccccc4)c3n2)cn1 [Preparative Example 73, (5-(1-methyl-1H-pyrazol-4-yl)thieno[3,2-b]pyridin-3-yl)(phenyl)-methanone]	3 to 10	3 to 10	3 to 10
Cn1ncc(-c2ccc3scc(-c4ccncc4)c3n2)c1CC1CC1 [Preparative Example 82, 5-(5-(cyclopropylmethyl)-1-methyl-1H-pyrazol-4-yl)-3-(pyridin-4-yl)thieno[3,2-b]pyridine]	0.5 to 3	3 to 10	0.1 to 0.499
Cn1cc(-c2ccc3scc(-c4ccnc(F)c4)c3n2)cn1 [Preparative Example 22, 3-(2-fluoropyridin-4-yl)-5-(1-methyl-1H-pyrazol-4-yl)thieno[3,2-b]pyridine]	0.1 to 0.499	0.5 to 3	0.1 to 0.499
c1ccc(-c2csc3ccc(-c4cnoc4)nc23)cc1 [Preparative Example 124, 4-(3-phenylthieno[3,2-b]pyridin-5-yl)isoxazole]	3 to 10	3 to 10	3 to 10
COc1cc(-c2ccn(C)n2)nc2c(-c3ccncc3)csc12 [Preparative Example 165, 7-methoxy-5-(1-methyl-1H-pyrazol-3-yl)-3-(pyridin-4-yl)thieno[3,2-b]pyridine]	0.5 to 3	3 to 10	0.1 to 0.499
Fc1cc(-c2ccc3scc(-c4ccccc4)c3n2)cc(F)c1F [Preparative Example 122, 3-phenyl-5-(3,4,5-trifluorophenyl)thieno[3,2-b]pyridine]	3 to 10	3 to 10	3 to 10
Cn1cc(-c2ccc3scc(Nc4ccccc4)c3n2)cn1 [Preparative Example 76, 5-(1-methyl-1H-pyrazol-4-yl)-N-phenylthieno[3,2-b]pyridin-3-amine]	0.02 to 0.099	0.1 to 0.499	0.1 to 0.499
Cc1cc(-c2cnn(C)c2)nc2c(-c3ccncc3)csc12 [Preparative Example 157, 7-methyl-5-(1-methyl-1H-pyrazol-4-yl)-3-(pyridin-4-yl)thieno[3,2-b]pyridine]	0.5 to 3	3 to 10	0.5 to 3
Cn1ncc(-c2ccc3scc(-c4ccncc4)c3n2)n1 [Preparative Example 94, 5-(2-methyl-2H-1,2,3-triazol-4-yl)-3-(pyridin-4-yl)thieno[3,2-b]pyridine]	0.5 to 3	3 to 10	0.5 to 3
Cn1cc(-c2ccc3scc(-c4cncs4)c3n2)cn1 [Preparative Example 69, 5-(1-methyl-1H-pyrazol-4-yl)-3-(thiazol-5-yl)thieno[3,2-b]pyridine]	0.1 to 0.499	0.1 to 0.499	0.02 to 0.099
Cn1cc(-c2ccc3scc(-c4ccncc4)c3n2)nn1 [Preparative Example 93, 5-(1-methyl-1H-1,2,3-triazol-4-yl)-3-(pyridin-4-yl)thieno[3,2-b]pyridine]	3 to 10	3 to 10	0.5 to 3
Cn1cc(-c2ccc3scc(-c4ccccc4)c3n2)cn1 [Preparative Example 2, 5-(1-methyl-1H-pyrazol-4-yl)-3-phenylthieno[3,2-b]pyridine]	0.1 to 0.499	0.5 to 3	0.1 to 0.499
Cc1nn(C)c(C)c1-c1ccc2scc(-c3ccncc3)c2n1 [Preparative Example 85, 3-(pyridin-4-yl)-5-(1,3,5-trimethyl-1H-pyrazol-4-yl)thieno[3,2-b]pyridine]	0.5 to 3	3 to 10	0.5 to 3
Cn1ccc(Nc2ccc3scc(-c4ccncc4)c3n2)n1 [Preparative Example 99, N-(1-methyl-1H-pyrazol-3-yl)-3-(pyridin-4-yl)thieno[3,2-b]pyridin-5-amine]	0.1 to 0.499	3 to 10	0.02 to 0.099
Cn1cc(-c2ccc3scc(-c4cnn(C)c4)c3n2)cn1 [Preparative Example 63, 3,5-bis(1-methyl-1H-pyrazol-4-yl)thieno[3,2-b]pyridine]	0.1 to 0.499	0.1 to 0.499	0.1 to 0.499
Cn1cc(-c2ccc3scc(-c4ccc5ncnn5c4)c3n2)cn1 [Preparative Example 53, 3-([1,2,4]-triazolo[1,5-a]pyridin-6-yl)-5-(1-methyl-1H-pyrazol-4-yl)thieno[3,2-b]pyridine]	0.1 to 0.499	0.1 to 0.499	0.02 to 0.099
Cn1nccc1-c1ccc2scc(-c3ccncc3)c2n1 [Preparative Example 90, 5-(1-methyl-1H-pyrazol-5-yl)-3-(pyridin-4-yl)thieno[3,2-b]pyridine]	0.5 to 3	3 to 10	0.5 to 3
CC(C)n1cc(-c2ccc3scc(-c4ccncc4)c3n2)cn1 [Preparative Example 79, 5-(1-isopropyl-1H-pyrazol-4-yl)-3-(pyridin-4-yl)thieno[3,2-b]pyridine]	3 to 10	3 to 10	0.5 to 3
Cn1cc(-c2ccc3scc(-c4cccnc4)c3n2)cn1 [Preparative Example 11, 5-(1-methyl-1H-pyrazol-4-yl)-3-(pyridin-3-yl)thieno[3,2-b]pyridine]	0.1 to 0.499	0.5 to 3	0.5 to 3
